For orientation: IC50 means the concentration that inhibits the measured activity by half.

Where no end group is shown, it is not given here.

The record followed here is patent US5169836A, “Inhibitors of platelet binding” (Trustees of the University of Penna., priority 1988, dated 1992).

Experiment [1] addresses T1, glycoprotein IIb-IIIa on activated platelets (Homo sapiens, UniProt P05106+P08514).
T1 construct: Venous blood from normal donors was drawn; endogenous in cells
T1 sequence (P08514 32-887 limits assumed): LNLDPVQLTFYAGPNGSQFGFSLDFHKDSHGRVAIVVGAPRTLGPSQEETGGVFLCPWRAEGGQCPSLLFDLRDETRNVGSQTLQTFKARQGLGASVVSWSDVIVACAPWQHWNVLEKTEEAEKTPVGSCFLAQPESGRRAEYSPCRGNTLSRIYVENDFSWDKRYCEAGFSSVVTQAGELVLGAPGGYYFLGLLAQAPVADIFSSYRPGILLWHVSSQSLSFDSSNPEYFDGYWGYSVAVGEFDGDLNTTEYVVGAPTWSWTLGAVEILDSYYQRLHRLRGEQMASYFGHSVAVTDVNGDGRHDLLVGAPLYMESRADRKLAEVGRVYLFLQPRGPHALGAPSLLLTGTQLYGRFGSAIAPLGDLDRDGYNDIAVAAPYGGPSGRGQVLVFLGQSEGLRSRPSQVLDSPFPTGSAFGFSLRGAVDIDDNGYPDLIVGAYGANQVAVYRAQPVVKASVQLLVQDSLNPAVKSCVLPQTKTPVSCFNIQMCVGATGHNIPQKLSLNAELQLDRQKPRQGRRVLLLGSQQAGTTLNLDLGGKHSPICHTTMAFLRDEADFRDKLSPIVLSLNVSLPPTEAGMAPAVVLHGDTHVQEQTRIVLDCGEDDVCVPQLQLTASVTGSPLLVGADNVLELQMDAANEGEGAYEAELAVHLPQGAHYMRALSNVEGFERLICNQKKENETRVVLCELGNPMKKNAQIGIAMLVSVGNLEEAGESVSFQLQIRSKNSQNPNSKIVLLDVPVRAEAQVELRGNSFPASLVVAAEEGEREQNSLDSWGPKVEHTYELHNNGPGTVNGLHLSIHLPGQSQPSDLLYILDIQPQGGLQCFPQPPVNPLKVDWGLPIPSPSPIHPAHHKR
T1 sequence (P05106 27-788): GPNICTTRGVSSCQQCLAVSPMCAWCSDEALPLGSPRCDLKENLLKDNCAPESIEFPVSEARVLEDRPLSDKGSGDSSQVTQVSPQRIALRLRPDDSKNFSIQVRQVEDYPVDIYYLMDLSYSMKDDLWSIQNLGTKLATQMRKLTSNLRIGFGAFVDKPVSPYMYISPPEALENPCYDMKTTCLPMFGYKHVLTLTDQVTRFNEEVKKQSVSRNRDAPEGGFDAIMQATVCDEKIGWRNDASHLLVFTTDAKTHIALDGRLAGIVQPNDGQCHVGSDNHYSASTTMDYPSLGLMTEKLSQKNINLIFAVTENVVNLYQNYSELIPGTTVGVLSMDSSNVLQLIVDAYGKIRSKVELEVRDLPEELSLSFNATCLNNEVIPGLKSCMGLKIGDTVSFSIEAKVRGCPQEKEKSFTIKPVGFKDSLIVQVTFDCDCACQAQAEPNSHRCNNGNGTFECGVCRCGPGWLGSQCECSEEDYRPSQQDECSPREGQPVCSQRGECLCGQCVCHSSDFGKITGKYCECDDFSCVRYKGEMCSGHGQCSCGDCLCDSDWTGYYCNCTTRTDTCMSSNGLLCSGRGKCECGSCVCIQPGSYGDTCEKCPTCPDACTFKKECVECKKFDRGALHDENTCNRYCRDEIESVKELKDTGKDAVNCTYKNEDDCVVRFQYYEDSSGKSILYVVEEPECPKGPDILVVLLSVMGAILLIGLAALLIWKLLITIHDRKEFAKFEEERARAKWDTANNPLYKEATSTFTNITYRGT
Description: Binding of FITC-PAC1 to activated gel-filtered platelets, flow cytometry. To be noted: for effect on FITC-PAC1 binding: platelets activated with ADP and epinephrine (10 μM each), peptide 0-100 μM. From the text: The binding of PAC1 monoclonal antibody and fibrinogen to gel-filtered human blood platelets was examined by fluorescence-activated flow cytometry using the procedures of Shattil et al., Blood, 70, 307-315 (1987). Venous blood from normal donors was drawn into 1/7 vol of NIH formula A acid-citrate-dextrose solution, platelet-rich plasma was obtained, and the platelets were gel-filtered into an isotonic HEPES-containing buffer at pH 7.4, as described in Shattil et al., Blood, 68, 1224-1231 (1986). To examine the effect of synthetic peptides on PAC1 binding to activated platelets, 5×10^7 platelets were incubated for 15 min at room temperature in a final vol of 50 μl in the presence of varying concentrations of (0-100 μM) of peptide, 40 μg/ml fluorescein-labeled PAC1 (FITC-PAC1 ), 10 μM ADP and 10 μM epinephrine. Then, 500 μl of the isotonic buffer was added and antibody binding was quantitated using a flow cytometer, as described in Shattil et al., Blood, 70, 307-315 (1987). Fibrinogen binding to platelets was measured using the same incubation system, except that 50 μg/ml of purified human fibrinogen as described in Bennett et al., J. Clin. Invest., 64, 1393-1400 (1979) was added and the monoclonal antibody, FITC-9F9, was used instead of FITC-PAC1. […] Abrams et al., Blood, 70, 335a (1987). […] Shattil et al., Blood 70, 307-315 (1987). The amount of platelet-bound FITC-PAC1 or FITC-9F9 was determined by analyzing 10,000 platelets for the extent of fluorescence at 488 nm, and binding expressed as the mean fluorescence intensity in arbitrary fluorescence units.

For experiment [2], the target named is T2, blood platelet membrane fibrinogen receptor, glycoprotein IIb-IIIa (Homo sapiens, UniProt P05106+P08514).
T2 construct: Venous blood from normal donors was drawn; endogenous in cells
T2 sequence (P08514 32-887 limits assumed): T1 sequence (P08514 32-887 limits assumed)
T2 sequence (P05106 27-788): T1 sequence (P05106 27-788)
Description: Fibrinogen binding to activated gel-filtered platelets, measured with FITC-9F9 by flow cytometry. To be noted: 50 μg/ml fibrinogen. From the text: The binding of PAC1 monoclonal antibody and fibrinogen to gel-filtered human blood platelets was examined by fluorescence-activated flow cytometry using the procedures of Shattil et al., Blood, 70, 307-315 (1987). Venous blood from normal donors was drawn into 1/7 vol of NIH formula A acid-citrate-dextrose solution, platelet-rich plasma was obtained, and the platelets were gel-filtered into an isotonic HEPES-containing buffer at pH 7.4, as described in Shattil et al., Blood, 68, 1224-1231 (1986). […] Then, 500 μl of the isotonic buffer was added and antibody binding was quantitated using a flow cytometer, as described in Shattil et al., Blood, 70, 307-315 (1987). Fibrinogen binding to platelets was measured using the same incubation system, except that 50 μg/ml of purified human fibrinogen as described in Bennett et al., J. Clin. Invest., 64, 1393-1400 (1979) was added and the monoclonal antibody, FITC-9F9, was used instead of FITC-PAC1. […] Previous studies have established that the amount of FITC-labeled antibody bound to platelets determined by flow cytometry is related in a linear fashion to the amount of antibody bound determined in a conventional radioligand binding assay. […]
The ability of Arg-Tyr-Asp-21mer to inhibit fibrinogen binding to activated platelets was also tested. Fibrinogen binding was assessed by flow cytometry using a FITC-labeled anti-fibrinogen monoclonal antibody, 9F9. […]
Background: Flow cytometry measures light scatter and fluorescence of single cells or particles in a stream.

A further experiment deals with T3, platelet glycoprotein Ib (Homo sapiens, UniProt P07359).
T3 construct: platelet glycoprotein Ib on resting platelets; endogenous in cells
Description: Binding of FITC-AP1 to resting platelets, flow cytometry. As for the experimental part: (§1) Gel-filtered platelets were incubated in the presence of Arg-Tyr-Asp-21mer and various FITC-labeled anti-platelet monoclonal antibodies. Monoclonal antibody binding was determined by flow cytometry. In the case of antibody AP1 (specific for platelet glycoprotein Ib) (unfilled circles), the platelets were not activated. In the case of antibodies PAC1 (specific for activated glycoproteins IIb-IIIa) (filled circles), BIB5 (specific for glycoprotein IIb) (filled squares) and S12 (specific for GMP-140) (unfilled triangles), the platelets were activated with ADP and epinephrine (10 μM each). The data shown are from a single experiment representative of two runs performed as described.
(§2) The binding of PAC1 monoclonal antibody and fibrinogen to gel-filtered human blood platelets was examined by fluorescence-activated flow cytometry using the procedures of Shattil et al., Blood, 70, 307-315 (1987). […] Then, 500 μl of the isotonic buffer was added and antibody binding was quantitated using a flow cytometer, as described in Shattil et al., Blood, 70, 307-315 (1987). Fibrinogen binding to platelets was measured using the same incubation system, except that 50 μg/ml of purified human fibrinogen as described in Bennett et al., J. Clin. Invest., 64, 1393-1400 (1979) was added and the monoclonal antibody, FITC-9F9, was used instead of FITC-PAC1. […]

The next experiment concerns the target T4, glycoprotein IIb (Homo sapiens, UniProt P08514).
T4 construct: endogenous in cells
T4 sequence (P08514 32-887 limits assumed): T1 sequence (P08514 32-887 limits assumed)
Description: Binding of FITC-B1B5 to activated platelets, flow cytometry. To be noted: activated platelets (ADP and epinephrine, 10 μM each). As for the experimental part:
as §1, §2

For a further experiment, the target named is T5, GMP-140 (Homo sapiens, UniProt P16109).
T5 construct: endogenous in cells
T5 sequence (P16109 42-830): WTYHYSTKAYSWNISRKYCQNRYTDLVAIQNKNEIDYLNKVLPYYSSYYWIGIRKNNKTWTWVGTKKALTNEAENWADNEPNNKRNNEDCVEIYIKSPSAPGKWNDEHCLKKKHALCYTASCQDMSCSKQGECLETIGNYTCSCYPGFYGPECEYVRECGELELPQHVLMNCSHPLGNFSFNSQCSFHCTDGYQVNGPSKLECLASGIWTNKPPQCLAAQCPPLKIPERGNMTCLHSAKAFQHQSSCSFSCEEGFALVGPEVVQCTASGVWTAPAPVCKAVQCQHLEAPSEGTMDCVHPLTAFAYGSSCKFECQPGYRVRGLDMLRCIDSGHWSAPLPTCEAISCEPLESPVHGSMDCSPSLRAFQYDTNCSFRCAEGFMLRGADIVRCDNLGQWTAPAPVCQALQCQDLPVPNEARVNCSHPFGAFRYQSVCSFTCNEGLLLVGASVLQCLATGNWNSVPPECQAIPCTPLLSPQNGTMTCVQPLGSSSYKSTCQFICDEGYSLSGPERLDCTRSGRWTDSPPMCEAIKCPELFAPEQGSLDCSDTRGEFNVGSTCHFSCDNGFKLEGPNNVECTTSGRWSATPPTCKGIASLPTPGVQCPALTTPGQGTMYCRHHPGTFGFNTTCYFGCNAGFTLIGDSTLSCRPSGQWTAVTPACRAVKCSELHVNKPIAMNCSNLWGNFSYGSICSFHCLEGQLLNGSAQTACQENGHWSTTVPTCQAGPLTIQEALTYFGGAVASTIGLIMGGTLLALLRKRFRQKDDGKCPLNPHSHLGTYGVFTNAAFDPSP
The experiment is described as follows: Binding of FITC-S12 to activated platelets, flow cytometry. Conditions: activated platelets (ADP and epinephrine, 10 μM each). As for the experimental part: as §1, §2

T3 sequence (P07359 17-652): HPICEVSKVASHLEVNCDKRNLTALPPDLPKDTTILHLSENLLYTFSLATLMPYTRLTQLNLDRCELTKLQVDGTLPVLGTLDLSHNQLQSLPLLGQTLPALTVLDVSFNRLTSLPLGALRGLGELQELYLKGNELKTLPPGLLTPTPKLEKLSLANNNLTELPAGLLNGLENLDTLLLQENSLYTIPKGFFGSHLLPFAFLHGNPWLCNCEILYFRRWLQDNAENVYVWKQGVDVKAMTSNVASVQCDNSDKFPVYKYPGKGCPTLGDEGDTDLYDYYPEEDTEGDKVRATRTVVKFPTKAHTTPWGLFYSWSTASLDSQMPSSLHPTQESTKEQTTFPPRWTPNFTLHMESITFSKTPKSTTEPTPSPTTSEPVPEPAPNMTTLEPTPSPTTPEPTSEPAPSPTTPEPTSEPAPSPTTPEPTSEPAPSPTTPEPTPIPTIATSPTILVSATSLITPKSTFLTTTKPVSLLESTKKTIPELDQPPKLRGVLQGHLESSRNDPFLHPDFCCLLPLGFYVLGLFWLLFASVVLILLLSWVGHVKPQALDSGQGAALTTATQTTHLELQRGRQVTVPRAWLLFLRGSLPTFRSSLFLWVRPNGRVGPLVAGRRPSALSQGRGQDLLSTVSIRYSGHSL
T3 sequence (P13224 26-206 partner): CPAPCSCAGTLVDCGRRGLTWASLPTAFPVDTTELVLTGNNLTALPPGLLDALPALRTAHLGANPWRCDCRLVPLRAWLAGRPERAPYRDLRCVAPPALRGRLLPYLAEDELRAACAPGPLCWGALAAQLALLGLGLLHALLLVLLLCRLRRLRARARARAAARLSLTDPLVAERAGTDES
T3 sequence (P14770 17-177 partner): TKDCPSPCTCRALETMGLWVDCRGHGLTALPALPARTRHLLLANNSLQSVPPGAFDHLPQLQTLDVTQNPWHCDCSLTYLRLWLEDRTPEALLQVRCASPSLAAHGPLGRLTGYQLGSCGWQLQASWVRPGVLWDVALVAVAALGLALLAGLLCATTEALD

“ARRSPSYYRYDGAGPYYAMDY [Arg-Tyr-Asp-21mer]”: the Ki in experiment [1] (Dixon plot analysis, five separate experiments, ±SE, read-out: apparent Ki for inhibition of PAC1 binding) amounted to 10.2 ± 4.3 µM; in experiment [2] (Dixon plot analysis, three experiments, ADP plus epinephrine, read-out: apparent Ki for inhibition of fibrinogen binding) it was 5.5 ± 3.5 µM. For the same substance, in experiment [1] (platelets activated with 10 μM ADP and 10 μM epinephrine, 40 μg/ml FITC-PAC1, 15 min, room temperature, read-out: IC50 for inhibition of the binding of FITC-PAC1 to platelets), the IC50 lay within 20 to 30 µM. The “effect on FITC-PAC1 binding” value in experiment [1] was “marked effect”. Besides, the “effect on the binding of FITC-AP1 to platelet glycoprotein Ib” value at platelet glycoprotein Ib is reported as “no effect”. The “effect on the binding of FITC-B1B5 to glycoprotein IIb” value at glycoprotein IIb is on record as “no effect”. Also, the “effect on the binding of FITC-S12 to GMP-140” value at GMP-140 is “no effect”.
For the substance “NH2 -Tyr-Val-Asp-Gly-Asp-Gln-Cys-(Acm)-Glu-Ser-Asn-Pro-Cys-Leu-Asn-Gly-Gly-Met(O)-Cys-(Acm)-Lys-Asp-Asp-Ile-Asn-Ser-Tyr-Gly-Cys-Phe-COOH [unrelated-28mer, reference compound]”, in experiment [1], the “effect on FITC-PAC1 binding” value was “no effect”. For the same substance, in experiment [2] (platelets activated with ADP plus epinephrine), the “effect on 9F9 binding (fibrinogen binding)” value is “no effect”.
